One data set addresses albumin (BSA) (Bos taurus, UniProt P02769). Nature of the data set: Ethanolic cannabinoid solution mixed with aqueous albumin, protein-bound cannabinoid quantified (Example 2b). The format is binding, bovine. Also on record: protein-bound cannabinoid quantified, Vapor: unit not given beside the values. Conditions: 100 microliters ethanolic solution + 500 microliters 5 mg/ml BSA, 30° C., 12 hours, non-adsorbed cannabinoids separated. Here is the method: 100 microliters of ethanolic cannabinoid solution from cannabis vapor and cannabis smoke were each mixed with 500 microliters of aqueous albumin solution that had been prepared at a concentration of 5 mg albumin (BSA)/ml. The aqueous albumin solution combined with the ethanolic cannabinoid solution was incubated at 30° C. for 12 hours in open tubes. After 12 hours, the tubes were mixed and centrifuged, and non-adsorbed cannabinoids were separated from the solution. Concentrated protein-bound cannabinoid was dried and quantified as described below.

The conditions of data set [1]: 3 g high THC strain; 200 ml ethanol concentrated to about 3 ml.
Data set [2] can be described thus: Cannabinoid content of cannabis extract (Example 2a). The format is physicochemical. Particulars: methanol/chloroform 9:1 cannabis extract. As to the method: (§1) Cannabis extract was prepared as follows: In short, cannabis plant matter is dried, ground and homogenized to form ground cannabis. The ground cannabis is extracted with methanol/chloroform (volume/volume ratio of 9:1). Sonication and filtration is then performed. Identity of cannabinoids is determined by HPLC by evaporation, dissolution in an appropriate solvent.
(§2) Drying of the cannabis plant matter occurs under high vacuum at about 37±2° C. for about 24 hours and then ground to form a fine powder. 200 mg of ground powder is combined with 10 ml of methanol/chloroform, and sonicated in an ice bath for 30 minutes at maximum power. The supernatant is then filtered through a 0.2 micron filter.
(§3) A sample of the cannabis extract was analyzed for content of cannabinoids. The cannabis extract was then combined with albumin solution having 20% ethanol at 10 mg/ml (BSA) and incubated for 2 hours at room temperature.

In data set [3] the target is T1, BSA (Bos taurus, UniProt P02769). Nature of the data set: Cannabis extract combined with albumin solution, cannabinoids adsorbed to BSA (Example 2a). The format is binding, bovine. Particulars: albumin solution 10 mg/ml (BSA) with 20% ethanol, 2 hours at room temperature. Here is the method:
as §1, §2, §3

The next data set addresses T2, ovalbumin (hen) (Gallus gallus, UniProt P01012).
T2 sequence (P01012 1-386): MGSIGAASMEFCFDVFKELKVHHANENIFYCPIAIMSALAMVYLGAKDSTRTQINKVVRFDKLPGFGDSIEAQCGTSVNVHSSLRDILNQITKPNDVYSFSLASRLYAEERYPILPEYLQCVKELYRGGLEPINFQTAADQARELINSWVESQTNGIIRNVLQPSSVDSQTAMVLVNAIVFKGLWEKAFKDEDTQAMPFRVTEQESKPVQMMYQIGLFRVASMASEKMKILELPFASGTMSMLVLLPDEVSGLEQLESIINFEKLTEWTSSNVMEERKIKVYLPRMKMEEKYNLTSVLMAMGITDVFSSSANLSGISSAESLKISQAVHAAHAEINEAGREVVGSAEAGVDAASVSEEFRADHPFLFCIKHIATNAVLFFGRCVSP
Nature of the data set: Cannabis vapor streamed through protein solution, cannabinoids adsorbed (Example 1f). The format is binding. Particulars: vapor of cannabis high in CBD; 1 mg/ml protein, ethanol:water 1:2, 30° C., 24 hours. Here is the method: (§4) The protein solutions were formed using ethanol and water in a 1:2 ratio. The solutions were incubated at 30° C. for 24 hours.

The target of data set [4] is T3, rice recombinant human serum albumin (HSA) (Homo sapiens, UniProt P02768).
T3 construct: host or cells: rice (recombinant expression host)
Described as above. Type of data set: binding. Conditions: vapor of cannabis high in CBD; 1 mg/ml protein, ethanol:water 1:2, 30° C., 24 hours. Here is the method:
as §4

A further data set deals with bovine γ-globulin. The data set is described as above. Particulars: vapor of cannabis high in CBD; 1 mg/ml protein, ethanol:water 1:2, 30° C., 24 hours. Type of data set: binding. As to the method:
as §4

Data set [5] has as its target T1, BSA. Nature of the data set: Cannabis smoke/vapor passed through BSA/water/ethanol solution, cannabinoid profile (Example 1d). Type of data set: binding, bovine. Conditions: 33% ethanol, 48 hours incubation, washed. Here is the method: (§5) To show which cannabinoid compounds are solubilized in processes using BSA versus organic solvents, cannabis from two different batches was smoked and or vaporized. Vapor was formed using a “volcano” vaporizer at a temperature of 210° C. The smoke/vapor was passed through either a BSA/water/ethanol solution described in example 1b, comprising 33% by volume ethanol or through a pure ethanol (99% ethanol) solution. Solutions were stirred using a magnetic stirrer and were incubated for 48 hours, during which time, most of the ethanol evaporated. One of the batches of cannabis was high in THC, and the other batch of cannabis was high in both THC and CBD.
The BSA/water/ethanol solution was washed after smoke or vapor was combined with it, and the amount of cannabinoids present was analyzed. The results of the comparison of relative concentration of cannabinoids (relative to total cannabinoid content) as expressed in percent (weight/weight), for a strain of cannabis high in THC are shown in the table below.

In data set [6] the target is T4, bovine serum albumin (BSA) (Bos taurus, UniProt P02769).
T4 construct: purchased Millipore, USA
Nature of the data set: Cannabis smoke bubbled through aqueous BSA solution, cannabinoids determined by HPLC (Example 1a). The format is binding. Particulars: BSA in Hartmann's solution; FIG. 2A. As to the method: Protein-bound cannabinoid was formed according to the following method. An aqueous albumin solution was prepared by adding 20 (mg)) of bovine serum albumin (BSA, from Millipore, USA) to 10 milliliters (ml) ml Hartmann's solution (B. Braun Melsungen AG, Germany). BSA was completely dissolved using a shaker (Heidolph POLYMAX 1040) at 50 revolutions per minute.
A cannabis-filled cigarette was formed using a cigarette paper containing 0.8 gr ground cannabis (provided by “Seach” Israel), from flowers and budding leaves. A Pasteur pipette was cut longitudinally at its wide end, and the cigarette was lodged in to the cut end. The narrow end of the pipette was attached to a syringe. The cigarette was lit in a fume hood, and cigarette smoke was collected in the syringe by pulling the syringe plunger. The smoke was then slowly released into the BSA solution by depressing the plunger. Approximately 350 ml of smoke-containing air was gently bubbled through the BSA solution.
As a control, a solution of 10 ml of Hartmann's solution was prepared without the addition of BSA and a similar procedure of cannabis smoke formation and bubbling was performed.
Samples having a volume of 3 ml of the BSA solution and the control solution were each inserted in to HPLC glass vials and the open vials were inserted into a vacuum oven for 24 hours at 37° Celsius.
The solid phase after the evaporation was crushed in to a fine powder using mortar and pestle. The powder was extracted using Methanol chloroform 9:1 extract solution, sonicated for 30 minutes, and was then filtered and added in to an HPLC testing tube.
HPLC was performed using an HP1050 AGILENT, DAD detector, XBridge C18 3.5 μm 4.6×150 mm column, and according to the following parameters: […]

The nature of data set [7]: Cannabis smoke/vapor passed through pure ethanol, cannabinoid profile (Example 1d). The format is physicochemical. Particulars: for relative concentration of cannabinoids (relative to total cannabinoid content), Vapor passed through ethanol: vapor at 210° C. Here is the method: as §5
[8] abbreviates: strain of cannabis high in CBD and THC.

Sequence of albumin (BSA) (P02769 25-607): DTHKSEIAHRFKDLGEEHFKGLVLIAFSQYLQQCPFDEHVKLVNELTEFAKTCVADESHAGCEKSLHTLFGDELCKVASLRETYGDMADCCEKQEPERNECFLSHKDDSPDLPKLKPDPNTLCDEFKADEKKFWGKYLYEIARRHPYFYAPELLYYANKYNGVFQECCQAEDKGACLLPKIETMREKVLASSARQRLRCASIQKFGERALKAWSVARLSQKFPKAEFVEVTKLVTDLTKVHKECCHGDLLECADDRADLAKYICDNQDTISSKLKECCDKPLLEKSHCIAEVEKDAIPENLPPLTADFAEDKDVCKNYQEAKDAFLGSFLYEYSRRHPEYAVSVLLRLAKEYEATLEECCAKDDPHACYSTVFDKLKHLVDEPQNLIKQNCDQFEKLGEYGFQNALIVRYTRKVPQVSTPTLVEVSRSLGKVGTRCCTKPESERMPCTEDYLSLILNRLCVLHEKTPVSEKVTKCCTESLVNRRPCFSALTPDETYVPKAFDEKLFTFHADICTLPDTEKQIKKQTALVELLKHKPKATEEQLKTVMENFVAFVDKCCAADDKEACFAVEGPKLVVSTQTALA
T1 sequence (P02769 25-607): as above
T3 sequence (P02768 25-609): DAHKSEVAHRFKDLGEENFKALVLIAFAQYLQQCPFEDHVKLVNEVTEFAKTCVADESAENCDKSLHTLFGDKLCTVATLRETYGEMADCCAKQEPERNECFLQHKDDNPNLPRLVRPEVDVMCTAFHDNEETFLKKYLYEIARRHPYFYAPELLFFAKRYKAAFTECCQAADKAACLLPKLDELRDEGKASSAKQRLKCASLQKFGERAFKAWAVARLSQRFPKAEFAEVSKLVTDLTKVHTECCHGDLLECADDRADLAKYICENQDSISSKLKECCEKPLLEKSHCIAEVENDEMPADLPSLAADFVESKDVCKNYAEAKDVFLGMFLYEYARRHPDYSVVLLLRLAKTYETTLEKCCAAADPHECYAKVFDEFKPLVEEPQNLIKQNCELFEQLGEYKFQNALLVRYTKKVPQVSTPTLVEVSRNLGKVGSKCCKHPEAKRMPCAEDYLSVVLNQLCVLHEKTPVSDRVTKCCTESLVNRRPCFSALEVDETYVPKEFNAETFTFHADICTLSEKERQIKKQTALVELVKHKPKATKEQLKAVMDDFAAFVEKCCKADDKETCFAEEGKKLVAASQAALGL
T4 sequence (P02769 25-607): as the sequence (P02769 25-607) above

`CCCCCc1cc(O)c2c(c1)OC(C)(C)c1ccc(C)cc1-2` [CBN, cannabinol]: on albumin (BSA), the “protein-bound cannabinoid quantified, Smoke” value came to 6.5 and the “protein-bound cannabinoid quantified, Vapor” value amounted to 4.855. Moreover, in data set [1], the “amount of cannabinoids dissolved in ethanol, Smoke” value worked out at 276.856 micrograms/ml and the “amount of cannabinoids dissolved in ethanol, Vapor” value is given as 135.5254 micrograms/ml. Besides, the “percentage of each cannabinoid relative to total cannabinoids, Extract” value in data set [2] turned out to be 2 percentage. Moreover, the “percentage of each cannabinoid relative to total cannabinoids adsorbed to protein, Adsorbed to BSA after extract combined with BSA solution” value on BSA [3] is given as 2 percentage. Also, the “percentage of each cannabinoid relative to total cannabinoids adsorbed to protein, Ovalbumin” value at ovalbumin (hen) turned out to be 0 percentage. Moreover, the “percentage of each cannabinoid relative to total cannabinoids adsorbed to protein, Rice recombinant HSA” value in data set [4] came out at 0 percentage. For the same compound, the “percentage of each cannabinoid relative to total cannabinoids adsorbed to protein, Bovine γ-globulin” value in the data set on bovine γ-globulin was determined as 0 percentage. At BSA [5] (setting [8]), the “relative concentration of cannabinoids (relative to total cannabinoid content), Smoke passed through BSA/water/ethanol” value is 0.0 percent (weight/weight) and the “relative concentration of cannabinoids (relative to total cannabinoid content), Vapor passed through BSA/water/ethanol” value was 0.0 percent (weight/weight). For the same compound, the “relative concentration of cannabinoids (relative to total cannabinoid content), Smoke passed through BSA/water/ethanol” value at BSA [5] (strain of cannabis high in THC) is given as 0.0 percent (weight/weight). Besides, in [6], the “active cannabinoids found by HPLC in BSA aqueous solution after cannabis smoke was introduced” value was “dissolved in the solution”. In [7] (setting [8]), the “relative concentration of cannabinoids (relative to total cannabinoid content), Smoke passed through ethanol” value is 1.6 percent (weight/weight) and the “relative concentration of cannabinoids (relative to total cannabinoid content), Vapor passed through ethanol” value is 0.0 percent (weight/weight). In data set [7] (strain of cannabis high in THC), the “relative concentration of cannabinoids (relative to total cannabinoid content), Smoke passed through ethanol” value is 1.7 percent (weight/weight) and the “relative concentration of cannabinoids (relative to total cannabinoid content), Vapor passed through ethanol” value was 1.6 percent (weight/weight).
With `CCCCCc1cc2c(c(O)c1C(=O)O)[C@@H]1C=C(C)CC[C@H]1C(C)(C)O2` [THCA, tetrahydrocannabinoic acid], on albumin (BSA), the “protein-bound cannabinoid quantified, Smoke” value worked out at 2.16 and the “protein-bound cannabinoid quantified, Vapor” value was determined as 4.26. Besides, in data set [1], the “amount of cannabinoids dissolved in ethanol, Smoke” value was determined as 83.765 micrograms/ml and the “amount of cannabinoids dissolved in ethanol, Vapor” value turned out to be 72.8432 micrograms/ml. Moreover, in [2], the “percentage of each cannabinoid relative to total cannabinoids, Extract” value was found to be 22 percentage. Also, the “percentage of each cannabinoid relative to total cannabinoids adsorbed to protein, Adsorbed to BSA after extract combined with BSA solution” value on BSA [3] came out at 29 percentage. The “percentage of each cannabinoid relative to total cannabinoids adsorbed to protein, Ovalbumin” value at ovalbumin (hen) turned out to be 0 percentage. Moreover, the “percentage of each cannabinoid relative to total cannabinoids adsorbed to protein, Rice recombinant HSA” value in data set [4] stood at 0 percentage. Besides, the “percentage of each cannabinoid relative to total cannabinoids adsorbed to protein, Bovine γ-globulin” value in the data set on bovine γ-globulin is listed as 100 percentage. Besides, on BSA [5] (setting [8]), the “relative concentration of cannabinoids (relative to total cannabinoid content), Smoke passed through BSA/water/ethanol” value is listed as 5.3 percent (weight/weight) and the “relative concentration of cannabinoids (relative to total cannabinoid content), Vapor passed through BSA/water/ethanol” value is listed as 0.0 percent (weight/weight). In addition, the “relative concentration of cannabinoids (relative to total cannabinoid content), Smoke passed through BSA/water/ethanol” value on BSA [5] (strain of cannabis high in THC) was 9.3 percent (weight/weight). Moreover, the “active cannabinoids found by HPLC in BSA aqueous solution after cannabis smoke was introduced” value in data set [6] is on record as “dissolved in the solution”. Besides, in data set [7] (setting [8]), the “relative concentration of cannabinoids (relative to total cannabinoid content), Smoke passed through ethanol” value is on record as 0.7 percent (weight/weight) and the “relative concentration of cannabinoids (relative to total cannabinoid content), Vapor passed through ethanol” value is 0.3 percent (weight/weight). Moreover, in [7] (strain of cannabis high in THC), the “relative concentration of cannabinoids (relative to total cannabinoid content), Smoke passed through ethanol” value is 0.9 percent (weight/weight) and the “relative concentration of cannabinoids (relative to total cannabinoid content), Vapor passed through ethanol” value is on record as 1.1 percent (weight/weight).
